Experiments:
Format in all cases: in vivo
[1] = test system: upland rice (Oryza sp., var. Tebonnet, RICE); assay: Pre-emerge test, crop safety; details: pre-emerge, rated 14 days after application, 0 = no damage, 100 = complete death
In short: (§1)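 Fourteen days after spraying, crop and weed injury was graded visually from 0, no effect, to 100, every plant dead. Test substances were dissolved in acetone and applied at 15–1000 g ai/ha with a flat-fan nozzle. Application was either pre-emergence, one day after sowing, or post-emergence at the 2–3 leaf stage.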

[2] = test system: field corn (Zea mays L., var. Dekalb 535, CORN); assay: Pre-emerge test, crop safety; details: pre-emerge, rated 14 days after application, 0 = no damage, 100 = complete death
In short: as §1

[3] = test system: redroot pigweed (Amaranthus retroflexus, AMARE); assay: Pre-emerge test, greenhouse herbicide activity screening; details: pre-emerge, rated 14 days after application, 0 = no damage, 100 = complete death
In short: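 Compounds in acetone were track-sprayed at 187 l/ha, 15–1000 g ai/ha, onto sandy loam pots. Pre-emerge seeds were sown one day before spraying, with surface watering afterwards. Post-emerge plants were at the 2–3 leaf stage and sprayed with 0.25% v/v non-ionic surfactant. Injury was rated 0–100 at 14 days.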

[4] = test system: redroot pigweed (Amaranthus retroflexus, AMARE); assay: Post-emerge test, greenhouse herbicide activity screening; details: phytotoxicity rating 0-100 (0 no damage, 100 complete death), 14 days after application
In short: as §1

[5] = test system: sicklepod (Cassia obtusifolia, CASOB); assay: as above; details: phytotoxicity rating 0-100 (0 no damage, 100 complete death), 14 days after application
In short: as §1

[6] = test system: green foxtail (Setaria viridis, SETVI); assay: as above; details: phytotoxicity rating 0-100 (0 no damage, 100 complete death), 14 days after application
In short: as §1

[7] = test system: barnyardgrass (Echinochloa crus-galli, ECHCG); assay: as above; details: phytotoxicity rating 0-100 (0 no damage, 100 complete death), 14 days after application
In short: as §1

[8] = test system: large crabgrass (Digitaria sanguinalis, DIGSA); assay: as above; details: phytotoxicity rating 0-100 (0 no damage, 100 complete death), 14 days after application
In short: as §1

[9] = test system: velvetleaf (Abutilon theophrasti, ABUTH); assay: as above; details: phytotoxicity rating 0-100 (0 no damage, 100 complete death), 14 days after application
In short: as §1

[10] = test system: lambsquarters (Chenopodium album, CHEAL); assay: as above; details: phytotoxicity rating 0-100 (0 no damage, 100 complete death), 14 days after application
In short: as §1

[11] = test system: johnsongrass (Sorghum halepense, SORHA); assay: as above; details: phytotoxicity rating 0-100 (0 no damage, 100 complete death), 14 days after application
In short: as §1

[12] = test system: ivyleaf morningglory (Ipomoea hederacea, IPOHE); assay: as above; details: phytotoxicity rating 0-100 (0 no damage, 100 complete death), 14 days after application
In short: as §1

[13] = test system: upland rice (Oryza sp., var. Tebonnet, RICE); assay: Post-emerge test, crop safety; details: phytotoxicity rating 0-100 (0 no damage, 100 complete death), 14 days after application
In short: as §1

[14] = test system: field corn (Zea mays L., var. Dekalb 535, CORN); assay: Post-emerge test, crop safety; details: phytotoxicity rating 0-100 (0 no damage, 100 complete death), 14 days after application
In short: as §1

[15] = test system: sicklepod (Cassia obtusifolia, CASOB); assay: Pre-emerge test, greenhouse herbicide activity screening; details: pre-emerge, rated 14 days after application, 0 = no damage, 100 = complete death
In short: as §1

[16] = test system: green foxtail (Setaria viridis, SETVI); assay: as above; details: pre-emerge, rated 14 days after application, 0 = no damage, 100 = complete death
In short: as §1

[17] = test system: barnyardgrass (Echinochloa crus-galli, ECHCG); assay: as above; details: pre-emerge, rated 14 days after application, 0 = no damage, 100 = complete death
In short: as §1

[18] = test system: large crabgrass (Digitaria sanguinalis, DIGSA); assay: as above; details: pre-emerge, rated 14 days after application, 0 = no damage, 100 = complete death
In short: as §1

[19] = test system: velvetleaf (Abutilon theophrasti, ABUTH); assay: as above; details: pre-emerge, rated 14 days after application, 0 = no damage, 100 = complete death
In short: as §1

[20] = test system: lambsquarters (Chenopodium album, CHEAL); assay: as above; details: pre-emerge, rated 14 days after application, 0 = no damage, 100 = complete death
In short: as §1

[21] = test system: johnsongrass (Sorghum halepense, SORHA); assay: as above; details: pre-emerge, rated 14 days after application, 0 = no damage, 100 = complete death
In short: as §1

[22] = test system: ivyleaf morningglory (Ipomoea hederacea, IPOHE); assay: as above; details: pre-emerge, rated 14 days after application, 0 = no damage, 100 = complete death
In short: as §1

SMILES: Cn1c(C(F)(F)F)cc(=O)n(-c2c(F)cc(Cl)c(OCc3ccccc3)c2N)c1=O [Compound 1-22]
- Pre-emerge crop damage RICE (phytotoxicity rating, scale 0-100) ([1]; 63 g ai/ha): 0
- Pre-emerge crop damage RICE (phytotoxicity rating, scale 0-100) ([1]; 250 g ai/ha): 50
- Pre-emerge crop damage CORN (phytotoxicity rating, scale 0-100) ([2]; 63 g ai/ha): 0
- Pre-emerge crop damage CORN (phytotoxicity rating, scale 0-100) ([2]; 250 g ai/ha): 10
- Pre-emerge Herbicidal Activity AMARE (phytotoxicity rating, scale 0-100) ([3]; 63 g ai/ha): 95
- Pre-emerge Herbicidal Activity AMARE (phytotoxicity rating, scale 0-100) ([3]; 250 g ai/ha): 100
- Post-emerge Herbicidal Activity AMARE ([4]; 63 g ai/ha): 60
- Post-emerge Herbicidal Activity AMARE ([4]; 250 g ai/ha): 80
- Post-emerge Herbicidal Activity CASOB ([5]; 63 g ai/ha): 0
- Post-emerge Herbicidal Activity CASOB ([5]; 250 g ai/ha): 0
- Post-emerge Herbicidal Activity SETVI ([6]; 63 g ai/ha): 0
- Post-emerge Herbicidal Activity SETVI ([6]; 250 g ai/ha): 80
- Post-emerge Herbicidal Activity ECHCG ([7]; 63 g ai/ha): 0
- Post-emerge Herbicidal Activity ECHCG ([7]; 250 g ai/ha): 0
- Post-emerge Herbicidal Activity DIGSA ([8]; 63 g ai/ha): 0
- Post-emerge Herbicidal Activity DIGSA ([8]; 250 g ai/ha): 0
- Post-emerge Herbicidal Activity ABUTH ([9]; 63 g ai/ha): 100
- Post-emerge Herbicidal Activity ABUTH ([9]; 250 g ai/ha): 100
- Post-emerge Herbicidal Activity CHEAL ([10]; 63 g ai/ha): 40
- Post-emerge Herbicidal Activity CHEAL ([10]; 250 g ai/ha): 80
- Post-emerge Herbicidal Activity SORHA ([11]; 63 g ai/ha): 0
- Post-emerge Herbicidal Activity SORHA ([11]; 250 g ai/ha): 10
- Post-emerge Herbicidal Activity IPOHE ([12]; 63 g ai/ha): 40
- Post-emerge Herbicidal Activity IPOHE ([12]; 250 g ai/ha): 90
- Post-emerge Herbicidal Activity RICE (crop damage) ([13]; 63 g ai/ha): 10
- Post-emerge Herbicidal Activity RICE (crop damage) ([13]; 250 g ai/ha): 40
- Post-emerge Herbicidal Activity CORN (crop damage) ([14]; 63 g ai/ha): 5
- Post-emerge Herbicidal Activity CORN (crop damage) ([14]; 250 g ai/ha): 15
- Pre-emerge Herbicidal Activity CASOB (phytotoxicity rating, scale 0-100) ([15]; 63 g ai/ha): 0
- Pre-emerge Herbicidal Activity CASOB (phytotoxicity rating, scale 0-100) ([15]; 250 g ai/ha): 0
- Pre-emerge Herbicidal Activity SETVI (phytotoxicity rating, scale 0-100) ([16]; 63 g ai/ha): 90
- Pre-emerge Herbicidal Activity SETVI (phytotoxicity rating, scale 0-100) ([16]; 250 g ai/ha): 100
- Pre-emerge Herbicidal Activity ECHCG (phytotoxicity rating, scale 0-100) ([17]; 63 g ai/ha): 0
- Pre-emerge Herbicidal Activity ECHCG (phytotoxicity rating, scale 0-100) ([17]; 250 g ai/ha): 60
- Pre-emerge Herbicidal Activity DIGSA (phytotoxicity rating, scale 0-100) ([18]; 63 g ai/ha): 0
- Pre-emerge Herbicidal Activity DIGSA (phytotoxicity rating, scale 0-100) ([18]; 250 g ai/ha): 60
- Pre-emerge Herbicidal Activity ABUTH (phytotoxicity rating, scale 0-100) ([19]; 63 g ai/ha): 100
- Pre-emerge Herbicidal Activity ABUTH (phytotoxicity rating, scale 0-100) ([19]; 250 g ai/ha): 100
- Pre-emerge Herbicidal Activity CHEAL (phytotoxicity rating, scale 0-100) ([20]; 63 g ai/ha): 95
- Pre-emerge Herbicidal Activity CHEAL (phytotoxicity rating, scale 0-100) ([20]; 250 g ai/ha): 100
- Pre-emerge Herbicidal Activity SORHA (phytotoxicity rating, scale 0-100) ([21]; 63 g ai/ha): 0
- Pre-emerge Herbicidal Activity SORHA (phytotoxicity rating, scale 0-100) ([21]; 250 g ai/ha): 60
- Pre-emerge Herbicidal Activity IPOHE (phytotoxicity rating, scale 0-100) ([22]; 63 g ai/ha): 0
- Pre-emerge Herbicidal Activity IPOHE (phytotoxicity rating, scale 0-100) ([22]; 250 g ai/ha): 20

SMILES: Cc1c(Cl)cc(F)c(-n2c(=O)cc(C(F)(F)F)n(C)c2=O)c1N [Compound 1-37]
- Pre-emerge crop damage RICE (phytotoxicity rating, scale 0-100) ([1]; 63 g ai/ha): 60
- Pre-emerge crop damage RICE (phytotoxicity rating, scale 0-100) ([1]; 250 g ai/ha): 90
- Pre-emerge crop damage CORN (phytotoxicity rating, scale 0-100) ([2]; 63 g ai/ha): 15
- Pre-emerge crop damage CORN (phytotoxicity rating, scale 0-100) ([2]; 250 g ai/ha): 90
- Pre-emerge Herbicidal Activity AMARE (phytotoxicity rating, scale 0-100) ([3]; 63 g ai/ha): 100
- Pre-emerge Herbicidal Activity AMARE (phytotoxicity rating, scale 0-100) ([3]; 250 g ai/ha): 100
- Post-emerge Herbicidal Activity AMARE ([4]; 63 g ai/ha): 90
- Post-emerge Herbicidal Activity AMARE ([4]; 250 g ai/ha): 100
- Post-emerge Herbicidal Activity CASOB ([5]; 63 g ai/ha): 65
- Post-emerge Herbicidal Activity CASOB ([5]; 250 g ai/ha): 90
- Post-emerge Herbicidal Activity SETVI ([6]; 63 g ai/ha): 20
- Post-emerge Herbicidal Activity SETVI ([6]; 250 g ai/ha): 80
- Post-emerge Herbicidal Activity ECHCG ([7]; 63 g ai/ha): 30
- Post-emerge Herbicidal Activity ECHCG ([7]; 250 g ai/ha): 90
- Post-emerge Herbicidal Activity DIGSA ([8]; 63 g ai/ha): 10
- Post-emerge Herbicidal Activity DIGSA ([8]; 250 g ai/ha): 70
- Post-emerge Herbicidal Activity ABUTH ([9]; 63 g ai/ha): 100
- Post-emerge Herbicidal Activity ABUTH ([9]; 250 g ai/ha): 100
- Post-emerge Herbicidal Activity CHEAL ([10]; 63 g ai/ha): 95
- Post-emerge Herbicidal Activity CHEAL ([10]; 250 g ai/ha): 100
- Post-emerge Herbicidal Activity SORHA ([11]; 63 g ai/ha): 10
- Post-emerge Herbicidal Activity SORHA ([11]; 250 g ai/ha): 70
- Post-emerge Herbicidal Activity IPOHE ([12]; 63 g ai/ha): 100
- Post-emerge Herbicidal Activity IPOHE ([12]; 250 g ai/ha): 100
- Post-emerge Herbicidal Activity RICE (crop damage) ([13]; 63 g ai/ha): 25
- Post-emerge Herbicidal Activity RICE (crop damage) ([13]; 250 g ai/ha): 60
- Post-emerge Herbicidal Activity CORN (crop damage) ([14]; 63 g ai/ha): 10
- Post-emerge Herbicidal Activity CORN (crop damage) ([14]; 250 g ai/ha): 60
- Pre-emerge Herbicidal Activity CASOB (phytotoxicity rating, scale 0-100) ([15]; 63 g ai/ha): 80
- Pre-emerge Herbicidal Activity CASOB (phytotoxicity rating, scale 0-100) ([15]; 250 g ai/ha): 100
- Pre-emerge Herbicidal Activity SETVI (phytotoxicity rating, scale 0-100) ([16]; 63 g ai/ha): 100
- Pre-emerge Herbicidal Activity SETVI (phytotoxicity rating, scale 0-100) ([16]; 250 g ai/ha): 100
- Pre-emerge Herbicidal Activity ECHCG (phytotoxicity rating, scale 0-100) ([17]; 63 g ai/ha): 90
- Pre-emerge Herbicidal Activity ECHCG (phytotoxicity rating, scale 0-100) ([17]; 250 g ai/ha): 100
- Pre-emerge Herbicidal Activity DIGSA (phytotoxicity rating, scale 0-100) ([18]; 63 g ai/ha): 100
- Pre-emerge Herbicidal Activity DIGSA (phytotoxicity rating, scale 0-100) ([18]; 250 g ai/ha): 100
- Pre-emerge Herbicidal Activity ABUTH (phytotoxicity rating, scale 0-100) ([19]; 63 g ai/ha): 100
- Pre-emerge Herbicidal Activity ABUTH (phytotoxicity rating, scale 0-100) ([19]; 250 g ai/ha): 100
- Pre-emerge Herbicidal Activity CHEAL (phytotoxicity rating, scale 0-100) ([20]; 63 g ai/ha): 100
- Pre-emerge Herbicidal Activity CHEAL (phytotoxicity rating, scale 0-100) ([20]; 250 g ai/ha): 100
- Pre-emerge Herbicidal Activity SORHA (phytotoxicity rating, scale 0-100) ([21]; 63 g ai/ha): 90
- Pre-emerge Herbicidal Activity SORHA (phytotoxicity rating, scale 0-100) ([21]; 250 g ai/ha): 100
- Pre-emerge Herbicidal Activity IPOHE (phytotoxicity rating, scale 0-100) ([22]; 63 g ai/ha): 100
- Pre-emerge Herbicidal Activity IPOHE (phytotoxicity rating, scale 0-100) ([22]; 250 g ai/ha): 100

Reference: patent publication US6355799B1, “Substituted benzene compounds, process for their preparation, and herbicidal and defoliant compositions containing them” (ISK Americas Incorporated, priority 1997, dated 2002)
